Tests used:
Assay type in all cases: cell-based
HSV-2 = assay: Plaque Reduction Test for Herpes Simplex Virus 2 (strain MS) in MRC-5 cells; conditions: Human alphaherpesvirus 2, MRC5
Method: (§1) MRC-5 cells were grown to confluence in 24 well multi-dishes (well diameter=1.5 cm). The drained cell monolayers were each infected with approximately 50 infectious particles of herpes simplex virus 1 (HSV-1; strain SC16) or herpes simplex virus 2 (HSV-2; strain MS) in 100 μl of phosphate-buffered saline. The virus was adsorbed for 1 hour at room temperature. After adsorption, residual inoculum was removed from each well and replaced with 0.5 ml of Eagle's MEM containing 5% newborn calf serum and 0.9% agarose (A37). Once the agarose had set, dilutions of the test compound, which had been prepared in Eagle's MEM (containing 5% newborn calf serum), were added, each well receiving 0.5 ml of liquid overlay. The test compound was diluted to give the following series of concentrations: 200, 60, 20, 6 . . . 0.06 μg/ml; final concentrations in the assay ranged, therefore, between 100 μg/ml and 0.03 μg/ml. The infected cultures were incubated at 37° C. in a humidified atmosphere of 5% CO2 until plaques were clearly visible (usually 1 day).
(§2) Cultures from 1 and 2 were fixed in formal saline, the agarose overlays were carefully washed off, and then the cell monolayers were stained with carbol fuchsin. A stereo microscope was used to count plaques. The IC50 (concentration of drug which inhibits the number of plaques formed by 50% relative to the number of plaques observed in virus control monolayers) of the test compound was calculated. In addition, the monolayers were examined for evidence of drug-induced cytotoxicity; the minimum concentration at which cytotoxicity occurs was recorded.

VZV = assay: Plaque Reduction Test for Varicella-Zoster Virus (Ellen strain) in MRC-5 cells; conditions: Human alphaherpesvirus 3, MRC5
Method: as §1, with “varicella zoster” for “herpes simplex”, “(VZV; Ellen strain)” for “1 (HSV-1; strain SC16) or herpes simplex virus 2 (HSV-2; strain MS)”, “heat-inactivated foetal” for “newborn”, “(5 or 6 days).” for “(usually 1 day).”
as §2

[1] = Drug-induced cytotoxicity for the MRC-5 cell monolayers in the CMV test; conditions: human, mrc-5 cells, read-out: concentration at which cytotoxicity was noted
Method: MRC-5 cells were grown to confluence in 24 well multi-dishes (well diameter=1.5 cm). The drained cell monolayers were each infected with approximately 50 infectious particles of cytomegalovirus (CMV; AD-169 strain) in 100 μl of phosphate-buffered saline. The virus was adsorbed for 1 hour at room temperature. After adsorption, residual inoculum was removed from each well and replaced with 1 ml of Eagle's MEM containing 10% heat inactivated foetal calf serum and 0.9% agarose (A37). Once the agarose had set, dilutions of the test compound, which had been prepared in Eagle's MEM (containing 10% heat-inactivated calf serum), were added, each well receiving 1 ml of liquid overlay. The test compound was diluted to give the following series of concentrations: 200, 60, 20, 6 . . . 0.06 μg/ml; final concentrations in the assay range, therefore, between 100 μg/ml and 0.03 μg/ml. The infected cultures were incubated at 37° C. in a humidified atmosphere containing 5% CO2 until plaques were clearly visible (about 12 days). The cultures are fixed in formol saline, the agarose overlays were carefully washed off, and then the cell monolayers were stained with carbol fuchsin. A stereo microscope was used to count plaques. […] In addition, the monolayers were examined for evidence of drug-induced cytotoxicity; the minimum concentration at which cytotoxicity occurs was recorded.

For `Nc1nc2c(ncn2OCC/C=C/P(=O)(O)O)c(=O)[nH]1` [Example 1, (E)-9-(4-phosphonobut-3-enyloxy)guanine], which IC50 (HSV-2) is on record?
The IC50 was under 3 µg/mL.

And the IC50 (VZV)?
Its IC50 is under 3 µg/mL.

What about the MCC [1] of the same molecule?
Its MCC is 10 µg/mL.

— patent US5356886A, “Antiviral phosphono-alken derivatives of purines” (Beecham Group p.l.c., priority 1990, dated 1994)
